Data: patent US20060148754A1, “Composition for treating and/or preventing dysfunctions associated with type 2 diabetes mellitus and insulin resistance” (priority 2003, published 2006)

Test: Acetate and glycerol tracer infusion study with ingestion of lactulose or saline in obese, insulin resistant subjects
Format: in vivo, human
Method: Eight obese and insulin resistant subjects received a primed constant intravenous infusion of [1-^13C]acetate at the rate of 0.50 μmol·kg^−1·min^−1 and of [1,1,2,3,3-^2H5]glycerol at the rate of 0.11 μmol·kg^−1·min^−1 for 9 hours. After 3 hours of tracer infusion, patients ingested 30 g of pure lactulose, or saline solution. Arterialized blood samples were collected regularly.

Q: Which “plasma acetate concentration, maximum” value (after ingestion of 30 g lactulose, then decreased to baseline) does the source give for `OC[C@H]1O[C@@H](O[C@@H]2[C@@H](CO)OC(O)(CO)[C@H]2O)[C@H](O)[C@@H](O)[C@H]1O` (mixture of isomers) [lactulose] here?
A: Its value is “≈ 400 μmol/L”.

Q: And the FFA concentrations (after ingestion of 30 g lactulose, to 120 min, thereafter increased slowly)?
A: The FFA concentrations was “decreased significantly”.

Q: And the acetate turnover rate (after ingestion of 30 g pure lactulose, eight obese insulin resistant subjects, saline 10.3±2.2, P<0.0001)?
A: Its acetate turnover rate is 15.5 ± 2.2 µmol/kg/min.

Q: And the glycerol turnover (after ingestion of 30 g pure lactulose, saline 3.5±0.3, P≦0.05)?
A: Its glycerol turnover is 2.8 ± 0.4 µmol/kg/min.
